Laboratory results published in patent publication US20120164729A1, “COMPOSITION FOR CULTURING PLURIPOTENT STEM CELLS AND USE THEREOF” (NATIONAL UNIVERSITY CORPORATION CHIBA UNIVERSITY, priority 2010, published 2012).

Tests used:
Type in all cases: cell-based, human
[1] = system: 201B7 cells; assay: Alkaline phosphatase staining of subcultured cells at the 12th passage; conditions: activin A 10 ng/mL, CHIR99021 2 μM, LIF 1000 U/mL
From the text: Among the cells that had been subcultured as described above, those subcultured in the presence of activin A alone (A), a combination of activin A+CHIR99021 (AC), and a combination of activin A+CHIR99021+LIF (ACL) were subjected to alkaline phosphatase staining as described above, at the 12th passage. The results are shown in the photographs on the left side of FIG. 5.

[2] = system: 201B7 cells; assay: Effect of activin A on differentiation of embryoid bodies formed by hanging drop culture (microscopic observation); conditions: activin A 100 ng/mL instead of bFGF; at least 14 days after the initiation of culture; Matrigel-coated plate
Description: Cell culture was carried out using cells of strain HPS0001 201B7, which are human induced pluripotent stem cells (iPS cells), obtained from RIKEN BioResource Center, Cell Bank. The cell culture was carried out in a humidified chamber at 37° C. under the conditions of 5% CO2 using, as a medium, Dulbecco […] (DMEM)-F12 medium (manufactured by Sigma-Aldrich Japan K.K.) supplemented with a knockout serum replacement additive (KSR; manufactured by Life Technologies Japan, Ltd. (final concentration 20%), a 1/100 dilution of 100-times concentrated […] (manufactured by Life Technologies Japan, Ltd.), 2 mM L-glutamine (manufactured by Life Technologies Japan, Ltd.), 0.1 mM 2-mercaptoethanol (manufactured by Sigma-Aldrich Japan K.K.), and 5 ng/mL of basic fibroblast growth factor (bFGF; manufactured by Wako Pure Chemical industries, Ltd.). At this time, 201B7 cell line was proliferated by co-culturing 201B7 cell line on cells of strain SNL76/7, which are mouse-derived fetal fibroblasts proliferated on a culture plate (manufactured by AGC Techno Glass Corp.) treated with mitomycin C (manufactured by Sigma-Aldrich Japan K.K.) and coated with gelatin (manufactured by Sigma-Aldrich Japan K.K.), and the 201B7 cell line was maintained. Also, at the time of subculturing, cells were collected using a CTK solution. […]

[3] = system: 201B7 cells; assay: Immunostaining of subcultured cells for pluripotency markers (Oct3/4, Nanog, SSEA4, TRA-1-60); conditions: cells subcultured from the 11th passage
Description: Each of the cells at the 11th passage was seeded on a Matrigel-coated 4-well slide glass, and subculture was continued. When the cells reached 70% confluency, the medium was removed, and the cells were washed once with PBS. The cells were immobilized with 4% para-formaldehyde, and then were washed three times with PBS. Meanwhile, in the case of staining for Oct3/4 and Nanog, a permeabilization solution (0.2% Triton X-100 (PBS solution)) was added to the cells, and the cells were left to stand for 15 minutes at room temperature. Subsequently, the cells were washed three times for 5 minutes with a washing buffer (2% FBS (PBS solution)).
Thereafter, primary antibodies diluted with the washing buffer were added to the cells, and the cells were left to stand overnight at 4° C. Meanwhile, the types of the various primary antibodies and the dilution ratios are as follows.
Mouse anti-Oct3/4 antibody (BD Transduction Laboratories): 200 times
Rabbit anti-Nanog antibody (manufactured by ReproCELL Inc.): 1000 times
Mouse anti-SSEA4 antibody (manufactured by Chemicon Corporation): 200 times
Mouse anti-TRA-1-60 antibody (manufactured by Chemicon Corporation): 200 times
Subsequently, the cells were […] three times for 5 minutes with the washing buffer, and then secondary antibodies diluted with the washing buffer were added. The cells were left to stand for one hour at 4° C. […]

[4] = system: 201B7 cells; assay: Confirmation of maintenance of undifferentiation potency by alkaline phosphatase (ALP) staining and phase contrast morphology
From the text: It was confirmed by alkaline phosphatase (ALP) staining that the 201B7 cells cultured in the presence of activin A maintained undifferentiation potency. Meanwhile, the photographs on the left side of FIG. 3 are images observed with a phase contrast microscope, and the photographs on the right side are images observed after ALP staining.

[5] = system: 201B7 cells; assay: Evaluation of cell proliferative capacity by MTS assay; conditions: FIG. 2
Description: The proliferative capacity of 201B7 cells that had been cultured in the presence of activin A was evaluated by an MTS assay.

“activin A: homodimer of the β chain of inhibin A (βAβA), TGF-β superfamily protein; manufactured by R & D Systems, Inc.” was tested, and the ALP staining [1] was “positive”, the “morphological condition of embryoid bodies” value [2] was “maintained a morphologically undifferentiated condition” and the “staining of nuclei by anti-Oct3/4 antibody” value [3] was “positively stained”. For the same substance, the “concentration of added activin A at which iPS cells can maintain undifferentiation potency” value ([4]; ALP staining and morphology) was 0.01 to 0.1 µg/mL, the ALP staining ([4]; activin A 1 ng/mL) was “positive” and the cell morphology ([4]; activin A 1 ng/mL) was “slightly similar to fibroblasts”. For the same substance, the ALP staining ([4]; activin A 10 ng/mL) was “positive”, the cell morphology ([4]; activin A 10 ng/mL) was “maintained an undifferentiated condition” and the ALP staining ([4]; activin A 30 ng/mL) was “positive”. For the same substance, the cell morphology ([4]; activin A 30 ng/mL) was “maintained an undifferentiated condition”, the ALP staining ([4]; activin A 100 ng/mL) was “positive” and the cell morphology ([4]; activin A 100 ng/mL) was “maintained an undifferentiated condition”. The “concentration of added activin at which 201B7 cells had proliferative capacity” value [5] was 3 to 30 ng/mL.
